# ChEMBL document CHEMBL1131954, “Homoisofagomines: chemical-enzymatic synthesis and evaluation as alpha- and beta-glucosidase inhibitors” (Bioorg Med Chem Lett, 1999)
# Columns and labels:
# [1] = system: alpha-glucosidase (Saccharomyces cerevisiae); assay: Inhibitory activity against alpha-glucosidase of yeast; No inhibition
# [2] = system: Alpha-glucosidase (Saccharomyces cerevisiae); assay: Inhibitory activity against alpha-glucosidase of yeast at a concentration of 0.1 mM
structure (smiles),measurement,setting,value
C[C@@H]1NC[C@@H](CO)[C@@H](O)[C@@H]1O,Ki,[1],Not Active
same,inhibition,[2],< 20%
